Test results from patent US6605609B2, “Thizaine oxazolidinone” (Pharmacia & Upjohn Company, priority 2000, dated 2003).
Values after ≈ are worked out from the molar mass of the structure shown.

Columns and labels:
[1] = test system: S. aureus (52 isolates), methicillin-resistant; experiment: MIC by agar dilution (MIC90); type: cell-based, Staphylococcus aureus; settings: minimum inhibitory concentration required to inhibit 90% of the isolates
Excerpt: The in vitro activity of the compound of this invention can be assessed by standard testing procedures such as the determination of minimum inhibitory concentration (MIC) by agar dilution as described in “Approved Standard. Methods for Dilution Antimicrobial Susceptibility Tests for Bacteria That Grow Aerobically”, 3rd. ed., published 1993 by the National Committee for Clinical Laboratory Standards, Villanova, Pa., USA.

[2] = Loss during and following terminal moist heat sterilization in container; type: physicochemical; settings: container-solution contact surface made of at least 50% polyolefin
Excerpt: When terminally moist heat sterilizing an IV solution, the solution is placed in the container in which (1) it will be stored and then transferred to the container from which it will ultimately be administered, or (2) stored and then ultimately administered from the same container to deliver the IV solution to the patient. […] What is essential is that the container-solution contact surface material be primarily a polyolefin; the remainder of the container can be made from polyolefin or other materials. It is preferred that the container-solution contact surface is made of from about 50 to about 100% polyolefin. It is more preferred that the container-solution contact surface is made of from about 70 to about 90% polyolefin. It is more preferred that the container-solution contact surface is made of from about 80% polyolefin. It is even more preferred that the container-solution contact surface is made of polyolefin.

SMILES: CC(=O)NC[C@H]1CN(c2cc(F)c(N3CCS(=O)(=O)CC3)c(F)c2)C(=O)O1 [The compound of formula I, N-({(5S)-3-[4-(1,1-dioxido-4-thiomorpholinyl)-3,5-difluorophenyl]-2-oxo-1,3-oxazolidin-5-yl}methyl)acetamide]
- MIC90 S. aureus (52 isolates), methicillin-resistant [1]: 2 µg/mL
- loss of the compound during and following terminal moist heat sterilization [2]: significantly much less loss
- melting point: 187 to 189.5 °C

SMILES: CC(=O)NC[C@H]1CN(c2ccc(N3CCOCC3)c(F)c2)C(=O)O1 [linezolid, reference compound]
- MIC90 S. aureus (52 isolates), methicillin-resistant [1]: 4 µg/mL (≈ 11.9 µM)
